{"source": "ChEMBL document CHEMBL5131397", "about": "“Discovery and Optimization of Pyrazole Amides as Inhibitors of ELOVL1” (J Med Chem, 2021)", "key": {"Mus musculus [1]": {"tested_on": "Mus musculus", "assay": "Reduction in C26:0 LPC level in wild-type C57BL/6 mouse blood administered orally qd for 105 days by LC-MS/MS analysis", "type": "functional, tissue-based", "settings": "route po, time 105.0 day, DDE = dose-dependent effect"}, "[2]": {"assay": "Toxicity in Cynomolgus monkey assessed as dry and red scaly areas on face at 5 to 50 mg/kg/day, po administered for 14 days by macroscopic observation analysis", "type": "organism-based, Macaca fascicularis", "settings": "in vivo, 336 h, dose 5-50 mg/kg/day, time 14 day"}, "[3]": {"assay": "Reduction in C26:0/C16:0 LPC level in ABCD1 knock out mouse CNS at 20 mg/kg, po qd measured after 8 months of dosing by LC-MS/MS analysis", "type": "functional", "parameters": "scale not given: the % may be the effect or the level left", "settings": "5840 h"}, "[4]": {"assay": "Toxicity in Sprague-Dawley rat assessed as corneal abnormalities at 5 mg/kg/day, po administered for 8 weeks measured after cessation of dosing", "type": "organism-based", "settings": "in vivo, 1344 h"}, "[5]": {"assay": "Toxicity in telemetry-implanted Cynomolgus monkey assessed as higher baseline beta EEG activity at 5 to 20 mg/kg/day,NG administered for 7 days", "type": "organism-based, Macaca fascicularis", "settings": "in vivo, po, 168 h, dose 5-20 mg/kg/day, time 7 day"}, "[6]": {"assay": "Apparent permeability across apical to basolateral side in wild-type dog MDCK cells by LC-MS analysis", "type": "ADME, cell-based, Canis lupus familiaris"}, "[7]": {"assay": "Reduction in C26:0/C16:0 LPC level in ABCD1 knock out mouse CNS at 5 mg/kg, po qd measured after 8 months of dosing by LC-MS/MS analysis", "type": "functional", "parameters": "scale not given: the % may be the effect or the level left", "settings": "5840 h"}, "[8]": {"assay": "Volume of distribution at steady state in mouse at 1 mg/kg, iv upto 48 hrs by LC/MS/MS analysis", "type": "ADME, organism-based", "settings": "in vivo, read-out: Vdss"}, "[9]": {"assay": "Plasma protein binding in dog at 5 uM", "type": "ADME, cell-free, Canis lupus familiaris", "settings": "read-out: PPB (converted)"}, "[10]": {"assay": "Toxicity in Cynomolgus monkey assessed as acanthosis at 5 to 50 mg/kg/day, po administered for 14 days by microscopic observation analysis", "type": "organism-based, Macaca fascicularis", "settings": "in vivo, 336 h, dose 5-50 mg/kg/day, time 14 day"}, "[11]": {"assay": "Plasma protein binding in monkey at 5 uM", "type": "ADME, cell-free, Macaca mulatta", "settings": "rhesus monkey, read-out: PPB (converted)"}, "[12]": {"assay": "Plasma protein binding in rat at 5 uM", "type": "ADME, cell-free", "settings": "read-out: PPB (converted)"}, "[13]": {"assay": "Toxicity in Cynomolgus monkey assessed as dry and red scaly areas on eyelids at 5 to 50 mg/kg/day, po administered for 14 days by macroscopic observation analysis", "type": "organism-based, Macaca fascicularis", "settings": "in vivo, 336 h, dose 5-50 mg/kg/day, time 14 day"}, "[14]": {"assay": "Toxicity in Cynomolgus monkey assessed as dry and red scaly areas on thorax at 5 to 50 mg/kg/day, po administered for 14 days by macroscopic observation analysis", "type": "organism-based, Macaca fascicularis", "settings": "in vivo, 336 h, dose 5-50 mg/kg/day, time 14 day"}, "[15]": {"target": "T1, Very long chain fatty acid elongase 1 (Homo sapiens, UniProt Q9BW60)", "T1 sequence (Q9BW60 whole entry)": "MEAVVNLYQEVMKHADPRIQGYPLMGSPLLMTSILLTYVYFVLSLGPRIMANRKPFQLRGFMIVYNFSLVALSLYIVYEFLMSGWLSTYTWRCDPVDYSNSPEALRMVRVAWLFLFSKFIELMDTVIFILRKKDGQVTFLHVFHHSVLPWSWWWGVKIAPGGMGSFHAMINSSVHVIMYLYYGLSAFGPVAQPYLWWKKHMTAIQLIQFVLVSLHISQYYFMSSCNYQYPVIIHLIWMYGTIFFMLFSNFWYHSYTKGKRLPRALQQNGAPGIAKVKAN", "assay": "Inhibition of ELOVL1 in Het […] 1 patient-derived human lymphocyte assessed as reduction of C26:0 VLCFA synthesis incubated for 48 hrs by cellular assay", "type": "cell-based"}, "[16]": {"target": "T1, Very long chain fatty acid elongase 1", "assay": "Inhibition of ELOVL1 in human HEK2936E cells assessed as reduction of C26:0 LPC synthesis incubated for 48 hrs by cellular assay", "type": "cell-based"}, "[17]": {"assay": "AUC (infinity) in Cynomolgus monkey at 3 mg/kg, po upto 24 hrs by LC/MS/MS analysis", "type": "ADME, organism-based, Macaca fascicularis", "parameters": "dose 3 mg/kg, time < 24 hrs, route po", "settings": "in vivo"}, "[18]": {"assay": "Reduction in C26:0/C16:0 LPC level in ABCD1 knock out mouse CNS at 16 mg/kg, po qd measured after 6 months of dosing by LC-MS/SMS analysis", "type": "functional", "parameters": "scale not given: the % may be the effect or the level left", "settings": "4380 h"}, "[19]": {"assay": "Reduction in C26:0 LPC level in ABCD1 knock out mouse CNS at 8 mg/kg, po qd measured after 6 months of dosing by LC-MS/MS analysis", "type": "functional", "parameters": "scale not given: the % may be the effect or the level left", "settings": "4380 h"}, "[20]": {"assay": "Toxicity in Sprague-Dawley rat assessed as corneal keratitis at 5 mg/kg/day, po administered for 8 weeks by macroscopic observation analysis", "type": "organism-based", "settings": "in vivo, 1344 h"}, "[21]": {"assay": "Efflux ratio of permeability across […] in dog MDCK-MDR1 transfected cells by LC-MS analysis", "type": "ADME, cell-based, Canis lupus familiaris"}, "[22]": {"assay": "Toxicity in Sprague-Dawley rat assessed as erosion of forestomach at 5 to 50 mg/kg/day, po administered for 2 to 8 weeks", "type": "organism-based", "settings": "in vivo, dose lower 5 mg/kg/day, time lower 2 weeks, dose upper 50 mg/kg/day, time upper 8 weeks"}, "[23]": {"assay": "Cmax in Sprague-Dawley rat at 3 mg/kg, po upto 24 hrs by LC/MS/MS analysis", "type": "ADME, organism-based", "parameters": "dose 3 mg/kg, time < 24 hrs, route po", "settings": "in vivo"}, "[24]": {"target": "T1, Very long chain fatty acid elongase 1", "assay": "Inhibition of ELOVL1 in CALD patient-derived human lymphocyte assessed as reduction of C26:0 VLCFA synthesis incubated for 48 hrs by cellular assay", "type": "cell-based"}, "[25]": {"target": "T1, Very long chain fatty acid elongase 1", "assay": "Inhibition of ELOVL1 in Het […] 2 patient-derived human lymphocyte assessed as reduction of C26:0 VLCFA synthesis incubated for 48 hrs by cellular assay", "type": "cell-based"}, "[26]": {"assay": "Toxicity in ABCD1 knock out mouse assessed as decrease in body weight at 8 to 32 mg/kg, po qd treated for 6 months", "type": "organism-based", "settings": "in vivo, 4380 h, dose 8-32 mg/kg"}, "[27]": {"assay": "Toxicity in Sprague-Dawley rat assessed as ocular focal cellular disorganization at 5 mg/kg/day, po administered for 8 weeks by microscopic observation analysis", "type": "organism-based", "settings": "in vivo, 1344 h"}, "[28]": {"assay": "Reduction of C26:0 /C16:0 LPC level in ABCD1 KO mouse blood at 20 mg/kg, po qd for 8 months by LC-MS/MS analysis relative to control", "type": "functional", "parameters": "scale not given: the % may be the effect or the level left", "settings": "5840 h"}, "[29]": {"target": "T2, Very long chain fatty acid elongase 1 (Homo sapiens) (UniProt Q9BW60)", "T2 sequence (whole entry)": "T1 sequence (Q9BW60 whole entry)", "assay": "Inhibition of ELOVL-1 in human HEK2936E cells assessed as reduction in C26:0 lysophosphatidyl choline synthesis at 100 nM in presence of 13C-labeled acetate measured after 48 hrs", "type": "cell-based"}, "[30]": {"assay": "Reduction in C26:0/C16:0 LPC level in ABCD1 knock out mouse CNS at 8 mg/kg, po qd measured after 6 months of dosing by LC-MS/MS analysis", "type": "functional", "parameters": "scale not given: the % may be the effect or the level left", "settings": "4380 h"}, "[31]": {"assay": "Tmax in Sprague-Dawley rat at 3 mg/kg, po upto 24 hrs by LC/MS/MS analysis", "type": "ADME, organism-based", "settings": "in vivo"}, "[32]": {"assay": "Toxicity in Cynomolgus monkey assessed as hyperkeratosis at 5 to 50 mg/kg/day, po administered for 14 days by microscopic observation analysis", "type": "organism-based, Macaca fascicularis", "settings": "in vivo, 336 h, dose 5-50 mg/kg/day, time 14 day"}, "[33]": {"assay": "Toxicity in juvenile Sprague-Dawley rat assessed as clonic convulsions 5 to 75 mg/kg/day, po treatment started from postnatal day 75 to 114 days", "type": "organism-based", "settings": "in vivo, dose lower 5 mg/kg/day, time lower 75 day, dose upper 75 mg/kg/day, time upper 114 day"}, "Mus musculus [34]": {"tested_on": "Mus musculus", "assay": "Reduction in C24:0/C16:0 LPC level in ABCD1 knock out mouse CNS at 1 to 10 mg/kg, po qd measured after 3 months of dosing by LC-MS/MS analysis", "type": "functional, organism-based", "settings": "dose 1-10 mg/kg"}}, "note": "Active and inactive are the calls of the source. The calls are words filed in the database; no cut-off is given here.", "data": [{"smiles": "O=C(Nc1ccn(-c2ccnc(F)c2)n1)C1(c2ccccc2F)CC1", "values": [{"measurement": "Activity", "setting": "Mus musculus [1]", "value": "Dde"}, {"measurement": "Activity", "setting": "[2]", "value": "Toxic"}, {"measurement": "Activity", "setting": "[3]", "value": 65, "unit": "%"}, {"measurement": "Activity", "setting": "[4]", "value": "Toxic"}, {"measurement": "Activity", "setting": "[5]", "value": "Toxic"}, {"measurement": "Papp A→B", "setting": "[6]", "value": 10.1, "unit": "×10⁻⁶ cm/s"}, {"measurement": "Activity", "setting": "[7]", "value": 65, "unit": "%"}, {"measurement": "Vd", "setting": "[8]", "value": 2.6, "unit": "L/kg"}, {"measurement": "fraction unbound at 5 µM", "setting": "[9]", "value": 0.061}, {"measurement": "Activity", "setting": "[10]", "value": "Toxic"}, {"measurement": "fraction unbound at 5 µM", "setting": "[11]", "value": 0.094}, {"measurement": "fraction unbound at 5 µM", "setting": "[12]", "value": 0.071}, {"measurement": "Activity", "setting": "[13]", "value": "Toxic"}, {"measurement": "Activity", "setting": "[14]", "value": "Toxic"}, {"measurement": "IC50", "setting": "[15]", "value": 5, "unit": "nM"}, {"measurement": "IC50", "setting": "[16]", "value": 13, "unit": "nM"}, {"measurement": "AUC(0-inf)", "setting": "[17]", "value": 7700, "unit": "ng·h/mL"}, {"measurement": "Activity", "setting": "[18]", "value": 55, "unit": "%"}, {"measurement": "Activity", "setting": "[19]", "value": 49, "unit": "%"}, {"measurement": "Activity", "setting": "[20]", "value": "Toxic"}, {"measurement": "Ratio", "setting": "[21]", "value": 1.1}, {"measurement": "Activity", "setting": "[22]", "value": "Toxic"}, {"measurement": "Cmax", "setting": "[23]", "value": 174, "unit": "ng/mL"}, {"measurement": "IC50", "setting": "[24]", "value": 15, "unit": "nM"}, {"measurement": "IC50", "setting": "[25]", "value": 9, "unit": "nM"}, {"measurement": "Activity", "setting": "[26]", "value": "Non-Toxic"}, {"measurement": "Activity", "setting": "[27]", "value": "Toxic"}, {"measurement": "Activity", "setting": "[28]", "value": 68, "unit": "%"}, {"measurement": "inhibition", "setting": "[29]", "value": "Active"}, {"measurement": "Activity", "setting": "[30]", "value": 54, "unit": "%"}, {"measurement": "Tmax", "setting": "[31]", "value": 24, "unit": "min"}, {"measurement": "Activity", "setting": "[32]", "value": "Toxic"}, {"measurement": "Activity", "setting": "[33]", "value": "Toxic"}, {"measurement": "Activity", "setting": "Mus musculus [34]", "value": "Active"}]}]}
